Assays:
UO-31 = test: NCI-60 screen at 10 μM: UO-31; type: cell-based, human; settings: Renal Cancer UO-31; 10 μM single dose; 48 hrs
Protocol: (§1) NL-101 and CY-102 was sent to U.S. National Cancer Institute (NCI) for NCI 60-cell line screening using a single compound dose (10 μM).
(§2) The human tumor cell lines of the cancer screening panel were grown in RPMI 1640 medium containing 5% fetal bovine serum (5% FBS) and 2 mM L-glutamine. For a typical screening experiment, cells were inoculated into 96-well microtiter plates in 100 μL, at plating densities ranging from 5,000 to 40,000 cells/well depending on the doubling time of individual cell lines. After cell inoculation, the microtiter plates were incubated at 37° C., 5% CO2, 95% air, and 100% relative humidity for 24 h prior to addition of experimental compounds. […]
(§3) Following drug addition, the plates were incubated for an additional 48 hrs at 37° C., 5% CO2, 95% air, and 100% relative humidity. […] Bound stain was subsequently solubilized with 10 mM trizma base, and the absorbance was read on an automated plate reader at a wavelength of 515 nm. […]
(§4) Using the seven absorbance measurements [time zero, (Tz), control growth, (C), and test growth in the presence of drug at the 10 μM concentration levels (Ti)], percentage growth was calculated at each of the drug concentrations levels. Percentage growth inhibition was calculated as: [(Ti−Tz)/(C−Tz)]×100 for which Ti>/=Tz or [(Ti−Tz)/Tz]×100 for which Ti<Tz.

LOX IMVI = test: NCI-60 screen at 10 μM: LOX IMVI; type: cell-based, human; settings: Melanoma LOX IMVI; 10 μM single dose; 48 hrs
Protocol: as §1, §2, §3, §4

HOP-62 = test: NCI-60 screen at 10 μM: HOP-62; type: cell-based, human; settings: NSCLC HOP-62; 10 μM single dose; 48 hrs
Protocol: as §1, §2, §3, §4

[1] = target: hERG (Human Ether-á-go-go-Related-Gene) (Homo sapiens, UniProt Q12809)
Water solubility = type: physicochemical; settings: thermodynamic from solid; distilled water at room temperature, visual inspection
Protocol: To measure water solubility, to approximately 10 mg of a sample in a tube-stoppered 10 mL graduated cylinder, increasing volumes of distilled water at room temperature were added according to the steps shown in the table below:
After each addition of water to give the indicated total volume, the mixture was vortexed or sonicated for 1 min and was visually inspected for any undissolved parts of the sample. If, after a total of 10 mL of water had been added (step 5), the sample or parts of it remained undissolved, the contents of the measuring cylinder was transferred to a 100 mL measuring cylinder which was then filled up with water up to 100 mL (20 ml, 25 ml, 50 ml, 100 ml) and shaken. The approximate solubility was given in the table under that volume of added water in which complete dissolution of the sample occurred. If the substance was still apparently insoluble, further dilution was undertaken to ascertain whether the column elution or the flask solubility method should be used.

HCT-15 = test: NCI-60 screen at 10 μM: HCT-15; type: cell-based, human; settings: Colon Cancer HCT-15; 10 μM single dose; 48 hrs
Protocol: as §1, §2, §3, §4

NCI-H322M = test: NCI-60 screen at 10 μM: NCI-H322M; type: cell-based, human; settings: NSCLC NCI-H322M; 10 μM single dose; 48 hrs
Protocol: as §1, §2, §3, §4

HT29 = test: NCI-60 screen at 10 μM: HT29; type: cell-based, human; settings: Colon Cancer HT29; 10 μM single dose; 48 hrs
Protocol: as §1, §2, §3, §4

[2] = target: HDAC enzymes (Hela Nuclear Extract); type: biochemical
NCI-H23 = test: NCI-60 screen at 10 μM: NCI-H23; type: cell-based, human; settings: NSCLC NCI-H23; 10 μM single dose; 48 hrs
Protocol: as §1, §2, §3, §4

MDA-MB-231 = test: NCI-60 screen at 10 μM: MDA-MB-231; type: cell-based, human; settings: Breast Cancer MDA-MB-231; 10 μM single dose; 48 hrs
Protocol: as §1, §2, §3, §4

OVCAR-4 = test: NCI-60 screen at 10 μM: OVCAR-4; type: cell-based, human; settings: Ovarian Cancer OVCAR-4; 10 μM single dose; 48 hrs
Protocol: as §1, §2, §3, §4

EKVX = test: NCI-60 screen at 10 μM: EKVX; type: cell-based, human; settings: NSCLC EKVX; 10 μM single dose; 48 hrs
Protocol: as §1, §2, §3, §4

SF-539 = test: NCI-60 screen at 10 μM: SF-539; type: cell-based, human; settings: CNS Cancer (Glioma) SF-539; 10 μM single dose; 48 hrs
Protocol: as §1, §2, §3, §4

NCI-60 cell lines = test: NCI-60 cell line panel screening of NL-101 (NSC#751447); type: cell-based, human
CCRF-CEM = test: NCI-60 screen at 10 μM: CCRF-CEM; type: cell-based, human; settings: Leukemia CCRF-CEM; 10 μM single dose; 48 hrs
Protocol: as §1, §2, §3, §4

NCI-H522 = test: NCI-60 screen at 10 μM: NCI-H522; type: cell-based, human; settings: NSCLC NCI-H522; 10 μM single dose; 48 hrs
Protocol: as §1, §2, §3, §4

Chain of hERG (Human Ether-á-go-go-Related-Gene) (Q12809 whole entry): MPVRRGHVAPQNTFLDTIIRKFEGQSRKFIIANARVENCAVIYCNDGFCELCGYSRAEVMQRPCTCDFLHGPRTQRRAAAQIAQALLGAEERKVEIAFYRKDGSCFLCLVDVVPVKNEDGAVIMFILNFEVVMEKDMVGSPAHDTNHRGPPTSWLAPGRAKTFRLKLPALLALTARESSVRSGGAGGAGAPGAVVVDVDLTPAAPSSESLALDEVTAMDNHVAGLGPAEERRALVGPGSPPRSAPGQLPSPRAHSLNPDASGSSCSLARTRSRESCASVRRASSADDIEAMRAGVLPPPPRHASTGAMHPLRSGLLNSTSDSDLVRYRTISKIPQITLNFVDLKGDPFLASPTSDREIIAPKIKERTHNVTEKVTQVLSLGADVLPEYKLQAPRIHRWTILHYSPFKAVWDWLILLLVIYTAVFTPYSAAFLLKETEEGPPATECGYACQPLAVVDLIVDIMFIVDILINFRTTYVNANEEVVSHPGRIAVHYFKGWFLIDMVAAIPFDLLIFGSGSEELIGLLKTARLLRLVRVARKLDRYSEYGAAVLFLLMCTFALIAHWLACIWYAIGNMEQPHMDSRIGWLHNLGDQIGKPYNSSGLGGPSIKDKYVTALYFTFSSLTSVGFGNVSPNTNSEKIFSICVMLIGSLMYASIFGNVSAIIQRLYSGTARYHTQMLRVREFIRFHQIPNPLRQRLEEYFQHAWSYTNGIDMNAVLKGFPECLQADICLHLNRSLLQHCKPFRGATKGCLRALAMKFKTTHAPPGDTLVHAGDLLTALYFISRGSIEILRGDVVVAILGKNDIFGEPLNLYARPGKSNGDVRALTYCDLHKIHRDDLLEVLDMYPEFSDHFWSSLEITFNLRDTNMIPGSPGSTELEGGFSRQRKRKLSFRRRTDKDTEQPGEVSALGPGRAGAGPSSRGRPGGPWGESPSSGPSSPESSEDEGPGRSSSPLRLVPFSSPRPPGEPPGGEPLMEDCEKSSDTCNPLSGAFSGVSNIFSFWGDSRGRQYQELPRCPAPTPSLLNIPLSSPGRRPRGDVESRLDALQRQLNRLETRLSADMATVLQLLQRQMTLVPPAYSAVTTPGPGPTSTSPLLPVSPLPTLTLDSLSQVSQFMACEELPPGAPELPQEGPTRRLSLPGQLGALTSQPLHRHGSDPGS

SMILES	Growth % (UO-31) [%]	Growth % (LOX IMVI) [%]	Growth % (HOP-62) [%]	fold less cardiotoxicity compared to NL-101 (hERG assay) [1]	solubility at 1 min (Water solubility) [mg/mL]	Growth % (HCT-15) [%]	Growth % (NCI-H322M) [%]	Growth % (HT29) [%]	IC50 ([2]; Hela nuclear extract, N/A* = No HDAC activity up to highest testing concentration of 10 μM) [nM]	fold more potent than SAHA in the HDAC (nuclear extract) assay ([2]; versus SAHA)	Growth % (NCI-H23) [%]	Growth % (MDA-MB-231) [%]	Growth % (OVCAR-4) [%]	Growth % (EKVX) [%]	Growth % (SF-539) [%]	IC50 (NCI-60 cell lines; Homo sapiens, on average, read-out: average cellular IC50 in the 60 cancer cell lines) [nM]	fold more potent than Bendamustine in the NCI-60 cell lines (NCI-60 cell lines; versus Bendamustine)	Growth % (CCRF-CEM) [%]	Growth % (NCI-H522) [%]
Cn1c(CCNCc2ccc(/C=C/C(=O)NO)cc2)nc2cc(N(CCCl)CCCl)ccc21 [CY-102]	−9.19	−26.41	−30.02	5-10 fold	> 20	9.96	−15.30	−50.67	3.5	about 10 fold	−6.76	−35.33	−19.00						
Cn1c(CCCCCCC(=O)NO)nc2cc(N(CCCl)CCCl)ccc21 [NL-101]	63.69	−23.43	13.56			76.48	75.30	37.10			30.14	72.24	68.52	92.48	23.72	~2000	25-100 fold	17.16	−5.90

Reference: patent publication US10118901B2 (priority 2013, dated 2018)
